Test results as given in patent US20100069384A1, “5-ALKYLOXY-INDOLIN-2-ONE DERIVATIVES, PREPARATION THEREOF AND APPLICATION THEREOF IN THERAPY” (SANOFI-AVENTIS, priority 2006, published 2010).

What was measured:
[1] = molecular target: T1, human recombinant V2 vasopressin receptors (Homo sapiens, UniProt P30518); test: in vitro binding test, displacement of [H3]-AVP from V2 vasopressin receptors; conditions: CHO membranes, 3.5 nM [H3]-AVP, 45 minutes at 25° C.
T1 construct: expressed in transfected cells; host or cells: CHO
Protocol: The affinity of the compounds of the invention for the V2 vasopressin receptors was measured in in vitro binding tests, as described in J. Pharmacol. Exp. Ther., (2002), 300: pp. 1122-1130.
Plasma membranes (about 20 μg/ml) obtained from CHO tissue or cell line expressing human recombinant V2 vasopressin receptors, are incubated for 45 minutes at 25° C. in 200 μL of TRIS-HCl buffer (50 mM; pH 8.2) containing 2 mM of MgCl2, 1 mM of EDTA, 0.1% of BSA, 1/500 protease inhibitor cocktail (Sigma #P2714) and 3.5 nM of [H3]-AVP. The reaction is stopped by filtration and washing on GF/B filters. Nonspecific binding is determined in the presence of 1 μM of AVP. The compounds of the invention, dissolved beforehand to a concentration of 10^−2 M in DMSO, are tested in a dilution series.
For each concentration the results are expressed as percentage inhibition of specific binding. An IC50 (concentration of product inhibiting 50% of specific binding) is determined for each of the products using the in-house software Biost@t-SPEED v1.3 which employs the 4-parameter logistic model of Ratkovsky and Reedy (1986). Adjustment is obtained by nonlinear regression using Marquardt's algorithm of the SAS v8.2 software running under UNIX.

V1b receptors = molecular target: T2, V1b receptors (Homo sapiens, UniProt P47901); test: affinity for V1b receptors (method of Sugimoto et al.); format: binding; conditions: for IC50 V1b/IC50 V2: selectivity ratio versus V2
T2 sequence (P47901 1-424): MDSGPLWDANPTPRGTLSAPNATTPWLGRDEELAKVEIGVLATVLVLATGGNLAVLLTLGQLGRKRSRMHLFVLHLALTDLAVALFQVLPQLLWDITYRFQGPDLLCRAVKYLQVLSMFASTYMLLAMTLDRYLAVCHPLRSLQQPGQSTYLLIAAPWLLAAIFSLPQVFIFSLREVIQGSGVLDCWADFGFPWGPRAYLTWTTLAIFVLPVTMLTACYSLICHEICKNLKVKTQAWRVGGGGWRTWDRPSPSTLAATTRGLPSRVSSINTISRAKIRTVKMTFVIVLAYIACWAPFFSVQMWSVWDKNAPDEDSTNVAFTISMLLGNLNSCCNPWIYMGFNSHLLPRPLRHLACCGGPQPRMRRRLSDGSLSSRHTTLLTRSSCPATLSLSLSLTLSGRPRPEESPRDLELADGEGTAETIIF
Protocol: (§1) The affinity of the compounds of the invention for the Via and V1b vasopressin receptors and the affinity of the compounds of the invention for the oxytocin (OXT) receptors were also tested.
(§2) The affinity of the compounds according to the invention for human Via receptors was determined according to the method described by M. Thibonnier et al. in J. Biol. Chem. 1994, 269, 3304-3310. The affinity of the compounds according to the invention for the V1b receptors was determined according to the method described by T. Sugimoto et al. in J. Biol. Chem. 1994, 269, 27088-27092.

human oxytocin receptors = molecular target: T3, human oxytocin receptors (Homo sapiens, UniProt P30559); test: in vitro binding test, displacement of a radioiodated oxytocin analogue from oxytocin receptors; conditions: for IC50: membrane preparation of human oxytocin receptors; for IC50 OXT/IC50 V2: selectivity ratio versus V2
T3 sequence (P30559 1-389): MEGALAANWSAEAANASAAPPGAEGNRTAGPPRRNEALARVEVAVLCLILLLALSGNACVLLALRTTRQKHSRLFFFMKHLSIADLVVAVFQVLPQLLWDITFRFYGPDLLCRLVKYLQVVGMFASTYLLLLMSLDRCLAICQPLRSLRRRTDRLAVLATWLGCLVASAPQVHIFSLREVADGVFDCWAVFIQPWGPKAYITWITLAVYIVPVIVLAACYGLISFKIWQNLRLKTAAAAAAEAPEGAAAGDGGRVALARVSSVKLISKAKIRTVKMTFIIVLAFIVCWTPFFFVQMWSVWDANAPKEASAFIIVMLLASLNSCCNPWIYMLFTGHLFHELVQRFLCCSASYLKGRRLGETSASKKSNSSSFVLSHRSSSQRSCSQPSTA
Protocol: as §1
The affinity of the compounds according to the invention for the OXT receptors was determined in an in vitro binding test using the method described by J. Elands et al. in Eur. J. Pharmacol. 1987, 147, 197-207. This method comprises in vitro investigation of the displacement of a radioiodated analogue of oxytocin from the oxytocin receptors in a membrane preparation of human oxytocin receptors.

V1a receptors = V1a receptors (Homo sapiens, UniProt P37288); test: affinity for V1a receptors (method of Thibonnier et al.); format: binding; conditions: for IC50 V1a/IC50 V2: selectivity ratio versus V2
Protocol: as §1, §2

V1a receptors, sequence (P37288 whole entry): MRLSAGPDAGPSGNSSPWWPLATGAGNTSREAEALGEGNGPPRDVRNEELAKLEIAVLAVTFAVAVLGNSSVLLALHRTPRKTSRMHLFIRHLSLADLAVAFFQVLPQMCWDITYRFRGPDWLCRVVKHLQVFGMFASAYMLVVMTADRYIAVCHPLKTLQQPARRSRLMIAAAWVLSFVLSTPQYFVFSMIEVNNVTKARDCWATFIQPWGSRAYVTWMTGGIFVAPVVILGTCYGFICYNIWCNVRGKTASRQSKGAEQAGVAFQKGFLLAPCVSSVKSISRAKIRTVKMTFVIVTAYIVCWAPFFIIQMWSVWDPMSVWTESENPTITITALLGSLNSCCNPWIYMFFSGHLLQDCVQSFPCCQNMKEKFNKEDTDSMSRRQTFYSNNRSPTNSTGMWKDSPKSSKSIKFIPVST
T1 sequence (P30518 whole entry): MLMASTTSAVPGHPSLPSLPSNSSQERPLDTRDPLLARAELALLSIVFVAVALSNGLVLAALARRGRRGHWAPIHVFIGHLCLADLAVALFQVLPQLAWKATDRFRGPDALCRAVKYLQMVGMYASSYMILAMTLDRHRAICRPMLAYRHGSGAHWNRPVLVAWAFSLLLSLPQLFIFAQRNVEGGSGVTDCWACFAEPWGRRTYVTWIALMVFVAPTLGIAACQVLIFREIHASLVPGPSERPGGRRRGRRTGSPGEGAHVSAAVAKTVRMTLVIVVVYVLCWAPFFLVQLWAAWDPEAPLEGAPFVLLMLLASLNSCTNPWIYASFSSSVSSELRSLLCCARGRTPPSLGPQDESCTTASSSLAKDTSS

## CCOc1ccc2c(c1)C(C)(c1cc(NC(=O)C3CCN(C)CC3)ccc1Cl)C(=O)N2S(=O)(=O)c1ccc(C(=O)NC(C)(C)C)cc1OC (stereo not drawn) [Example 62, 1-methylpiperidine-4-carboxylic acid {3-[1-(4-tert-butylcarbamoyl-2-methoxy-benzenesulphonyl)-5-ethoxy-3-methyl-2-oxo-2,3-dihydro-1H-indol-3-yl]-4-chlorophenyl}-amide]
[1]
  IC50: 2.5 nM
other
  melting point: 180 °C
V1b receptors
  IC50: > 1000 nM
  IC50 V1b/IC50 V2: >100
Human oxytocin receptors
  IC50: > 1000 nM
  IC50 OXT/IC50 V2: >100
V1a receptors
  IC50: 630 nM
  IC50 V1a/IC50 V2: >100

## CCOc1ccc2c(c1)C(C)(c1ccccc1Cl)C(=O)N2S(=O)(=O)c1ccc(C(=O)NC(C)(C)CO)cc1 (stereo not drawn) [Example 72, 4-[3-(2-chlorophenyl)-5-ethoxy-3-methyl-2-oxo-2,3-dihydroindole-1-sulphonyl]-N-(2-hydroxy-1,1-dimethylethyl)benzamide]
[1]
  IC50: 1.3 nM
other
  melting point: 152 °C
V1b receptors
  IC50: 940 nM
  IC50 V1b/IC50 V2: >100
Human oxytocin receptors
  IC50: 390 nM
  IC50 OXT/IC50 V2: >100
V1a receptors
  IC50: > 1000 nM
  IC50 V1a/IC50 V2: >100

## COc1cc(C(=O)NC(C)(C)C)ccc1S(=O)(=O)N1C(=O)C(C)(c2ccccc2Cl)c2cc(O)ccc21 (stereo not drawn) [Example 144]
[1]
  IC50: 2.6 nM
other
  melting point: 166 °C
V1b receptors
  IC50: > 1000 nM
  IC50 V1b/IC50 V2: >100
Human oxytocin receptors
  IC50: 130 nM
  IC50 OXT/IC50 V2: 50
V1a receptors
  IC50: 310 nM
  IC50 V1a/IC50 V2: >100
